Reference: patent US20240374609A1, “NITROSAMINE IMPURITY, VARENICLINE PHARMACEUTICAL COMPOSITION CAPABLE OF REDUCING GENERATION OF NITROSAMINE IMPURITIES AND PREPARATION AND USE THEREOF” (VIWIT PHARMACEUTICALCO., LTD., priority 2021, published 2024)
Read-outs that look alike come from different tables or passages of the source.

What was measured:
[1] = test system: Salmonella Typhimurium TA102; test: Ames test, plate incorporation method, TA102; type: cell-based; conditions: positive control
Experimental: (§1) Salmonella Typhimurium TA97a, TA98, TA100, TA102, and TA1535 from MOLT OX, USA, were purchased from Shanghai Bioplus Biotech. Co., Ltd. The test was carried out using Salmonella typhimurium strains that were identified as meeting the requirements.
(§2) Rat liver S9 from Shanghai Bioplus Biotech. Co., Ltd.
(§3) The experiments were performed using the plate incorporation method.
(§4) Dose selection: The experiments were performed using 5 mg, 2.5 mg, 1.25 mg, 0.625 mg, 0.3125 mg, and 0.15625 mg per dish.
(§5) Test substance preparation: nitrosamine impurity compound P08 was prepared to a solution of 50 mg/ml with dimethyl-sulfoxide, and diluted with dimethyl-sulfoxide to give the solutions of 25 mg/ml, 12.5 mg/ml, 6.25 mg/ml, 3.125 mg/ml, and 1.5625 mg/ml successively.
(§6) 0.1 ml of frozen bacterial solutions TA97a, TA98, TA100, TA102 and TA1535 were inoculated into the 10 ml nutrient broth mediums respectively, and cultured at 37° C. (100/min) for 10 h with shaking (100 times/min). 2.0 ml of top layer medium containing 0.5 mmol/L histidine −0.5 mmol/L biotin was dispensed into test tubes, sterilized by 0.103 MPa for 20 min, and kept in a water bath at 50° C. Then, 0.1 ml of the test substance solution, 0.5 ml of the S9 mixture (when metabolic activation was required) and 0.1 ml of the bacterial solution were added into each tube successively, mixed sufficiently, and poured into the bottom layer agar plates quickly. Then, the plates were turned to distribute even. After being placed horizontally for condensation and solidification, the plates were inverted and incubated in an incubator at 37° C. for 48 h, and the number of reverse mutation colonies per dish was counted. Three parallel plates of each dose were made, containing the spontaneous reverse mutation group, the solvent control group and the positive control group.
(§7) The data were expressed as means±standards deviation (x±s), and SPSS 19.0 was used for calculation of data analysis.
(§8) If the test substance tested by the above test strain is negative both with and without S9, then the test substance is determined to be mutagenic negative.

[2] = test system: Salmonella Typhimurium TA1535; type: cell-based; conditions: positive control
Experimental: as §1, §2, §3, §4, §5, §6, §7, §8

[3] = test system: Salmonella Typhimurium TA98; test: Ames test, plate incorporation method, TA98; type: cell-based; conditions: positive control, TA98, −S9, 50 μg/dish
Experimental: (§9) Salmonella Typhimurium TA97a, TA98, TA100, TA102, and TA1535 from MOLT OX, USA, were purchased from Shanghai Bioplus Biotech.
as §2, §3, §4, §6, §7, §8

[4] = test system: Salmonella Typhimurium TA97a; test: Ames test, plate incorporation method, TA97a; type: cell-based; conditions: positive control, −S9, 50 μg/dish
Experimental: as §9, §2, §3, §4, §6, §7, §8

[5] = test system: Salmonella Typhimurium TA100; test: Ames test, plate incorporation method, TA100; type: cell-based; conditions: positive control, TA100, −S9, 1 μl/dish
Experimental: as §9, §2, §3, §4, §6, §7, §8

[6] = Content of nitrosamine impurity P08 in varenicline tartrate tablets, initial and at high temperature (HPLC Q-Exactive-MS/MS); type: physicochemical
Experimental: After ultrasound for 5 min, the pH of the dispersion was measured. The content of the nitrosamine impurity P08 in the varenicline tartrate tablets were measured by HPLC Q-Exactive-MS/MS (Vanquish HPLC Q-Exactive-MS/MS).
Wherein, • “API” (Active Pharmaceutical Ingredient) refers to the API of varenicline tartrate. • “Initial” refers to the immediate measurement after the preparation of the varenicline tartrate tablet. • “Measurement at high-temperature” refers to the measurement after keeping at 60° C. of the prepared varenicline tartrate tablet for a period of time (see “Chinese Pharmacopoeia”). • Symbol * refers to the liquid sample after adjusting the pH value, and the liquid sample is tested. • Symbol # refers to the liquid sample after adjusting the pH value which is subjected to a high temperature test, and then the liquid sample is tested.
Methodologically validated HPLC Q-Exactive-MS/MS (Vanquish HPLC Q-Exactive-MS/MS) was used for the qualitative and/or quantitative determination of nitrosamine impurity P08 in varenicline tartrate tablets. The measurement results are shown in Example 4.
Sample solution: 10 varenicline tartrate tablets were placed in a 10 ml volumetric flask, added with 3 mL of purified water and 3 mL of acetonitrile, sonicated for 30s, then diluted with acetonitrile to volume and mixed evenly.
C (ppm)=the concentration (ng/ml) of P08 in the sample solution/the concentration (mg/ml) of varenicline tartrate in the sample solution.

**Q.** For `O=C1c2cccc(O)c2C(=O)c2c(O)cccc21` [1,8-dihydroxyanthraquinone, reference compound], which “number of reverse mutation colonies per dish (x ± s)” value (from here on “number … per dish (x ± s)”) ([1]; TA102, +S9, 50 μg/dish) is on record?
**A.** The value was 921 ± 32.

**Q.** For `O=P1(N(CCCl)CCCl)NCCCO1` (stereo not shown) [Cyclophosphamide, cyclophosphamide, reference compound], which “number … per dish (x ± s)” value ([2]; TA1535, +S9, 200 μg/dish) is on record?
**A.** Its value is 171 ± 11.

**Q.** What does the source list for `CN(C)c1ccc(N=NS(=O)(=O)[O-])cc1.[Na+]` [Dexon, reference compound]?
**A.** number of reverse mutation colonies per dish (x ± s) [3]: 691 ± 43; number of reverse mutation colonies per dish (x ± s) [4]: 1294 ± 64

**Q.** Which “number … per dish (x ± s)” value [5] does the source give for `COS(C)(=O)=O` [Methyl methanesulfonate, methyl methanesulfonate, reference compound] here?
**A.** The value was 1596 ± 71.

**Q.** What about the “number … per dish (x ± s)” value ([1]; TA102, −S9, 1 μl/dish) of the same compound?
**A.** The value was 2418 ± 257.

**Q.** For `[N-]=[N+]=[N-]` [Sodium azide, sodium azide, reference compound], which “number … per dish (x ± s)” value ([2]; TA1535, −S9, 1.5 μg/dish) is on record?
**A.** The value was 570 ± 46.

**Q.** For varenicline tartrate [API], which “P08 in API” value ([6]; API of varenicline tartrate used for blue coating tablets) is on record?
**A.** Its value is 0.511 ppm.

**Q.** What about the “P08 in API” value ([6]; API of varenicline tartrate used for core tablets) of the same compound?
**A.** The value was 0.511 ppm.

**Q.** And the “P08 in API” value ([6]; API of varenicline tartrate used for white coating tablets)?
**A.** Its value is 0.511 ppm.
